SMILES strings stand for the structures.

Assay [1] has as its target T1, CF II (hClp1-hPcf11) (Homo sapiens, UniProt Q92989). Kind of assay: […]'-dATP titration in reconstituted pre-mRNA cleavage, half-maximal activation. The assay is classed as biochemical.
In assay [2] the target is T1, CF II (hClp1-hPcf11). Kind of assay: biochemical.
In assay [3] the target is CF II (hClp1-hPcf11) (Homo sapiens, UniProt Q92989, E22Q). Kind of assay: biochemical.
Assay [4] addresses CF II (hClp1-hPcf11) (Homo sapiens, UniProt Q92989, E22A). In words: biochemical.
For assay [5], the target named is CF II (hClp1-hPcf11) (Homo sapiens, UniProt Q92989, R288A/R293K). Kind of assay: biochemical.
CF II (hClp1-hPcf11) (Homo sapiens, UniProt Q92989, R288A/R293K), sequence (Q92989 whole entry R288A/R293K): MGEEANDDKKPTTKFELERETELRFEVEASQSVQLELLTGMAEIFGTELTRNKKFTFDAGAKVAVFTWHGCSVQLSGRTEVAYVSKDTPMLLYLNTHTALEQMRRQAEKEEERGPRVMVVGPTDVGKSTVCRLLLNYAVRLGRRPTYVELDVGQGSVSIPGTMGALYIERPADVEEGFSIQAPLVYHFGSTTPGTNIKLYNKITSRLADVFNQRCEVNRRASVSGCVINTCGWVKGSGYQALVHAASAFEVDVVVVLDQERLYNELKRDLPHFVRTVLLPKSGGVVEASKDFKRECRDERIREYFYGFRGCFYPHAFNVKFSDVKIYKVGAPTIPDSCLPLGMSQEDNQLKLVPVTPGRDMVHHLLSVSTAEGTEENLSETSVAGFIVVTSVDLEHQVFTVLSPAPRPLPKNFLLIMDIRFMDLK
CF II (hClp1-hPcf11) (Homo sapiens, UniProt Q92989, R288A/R293K), sequence (O94913 2-1555 partner): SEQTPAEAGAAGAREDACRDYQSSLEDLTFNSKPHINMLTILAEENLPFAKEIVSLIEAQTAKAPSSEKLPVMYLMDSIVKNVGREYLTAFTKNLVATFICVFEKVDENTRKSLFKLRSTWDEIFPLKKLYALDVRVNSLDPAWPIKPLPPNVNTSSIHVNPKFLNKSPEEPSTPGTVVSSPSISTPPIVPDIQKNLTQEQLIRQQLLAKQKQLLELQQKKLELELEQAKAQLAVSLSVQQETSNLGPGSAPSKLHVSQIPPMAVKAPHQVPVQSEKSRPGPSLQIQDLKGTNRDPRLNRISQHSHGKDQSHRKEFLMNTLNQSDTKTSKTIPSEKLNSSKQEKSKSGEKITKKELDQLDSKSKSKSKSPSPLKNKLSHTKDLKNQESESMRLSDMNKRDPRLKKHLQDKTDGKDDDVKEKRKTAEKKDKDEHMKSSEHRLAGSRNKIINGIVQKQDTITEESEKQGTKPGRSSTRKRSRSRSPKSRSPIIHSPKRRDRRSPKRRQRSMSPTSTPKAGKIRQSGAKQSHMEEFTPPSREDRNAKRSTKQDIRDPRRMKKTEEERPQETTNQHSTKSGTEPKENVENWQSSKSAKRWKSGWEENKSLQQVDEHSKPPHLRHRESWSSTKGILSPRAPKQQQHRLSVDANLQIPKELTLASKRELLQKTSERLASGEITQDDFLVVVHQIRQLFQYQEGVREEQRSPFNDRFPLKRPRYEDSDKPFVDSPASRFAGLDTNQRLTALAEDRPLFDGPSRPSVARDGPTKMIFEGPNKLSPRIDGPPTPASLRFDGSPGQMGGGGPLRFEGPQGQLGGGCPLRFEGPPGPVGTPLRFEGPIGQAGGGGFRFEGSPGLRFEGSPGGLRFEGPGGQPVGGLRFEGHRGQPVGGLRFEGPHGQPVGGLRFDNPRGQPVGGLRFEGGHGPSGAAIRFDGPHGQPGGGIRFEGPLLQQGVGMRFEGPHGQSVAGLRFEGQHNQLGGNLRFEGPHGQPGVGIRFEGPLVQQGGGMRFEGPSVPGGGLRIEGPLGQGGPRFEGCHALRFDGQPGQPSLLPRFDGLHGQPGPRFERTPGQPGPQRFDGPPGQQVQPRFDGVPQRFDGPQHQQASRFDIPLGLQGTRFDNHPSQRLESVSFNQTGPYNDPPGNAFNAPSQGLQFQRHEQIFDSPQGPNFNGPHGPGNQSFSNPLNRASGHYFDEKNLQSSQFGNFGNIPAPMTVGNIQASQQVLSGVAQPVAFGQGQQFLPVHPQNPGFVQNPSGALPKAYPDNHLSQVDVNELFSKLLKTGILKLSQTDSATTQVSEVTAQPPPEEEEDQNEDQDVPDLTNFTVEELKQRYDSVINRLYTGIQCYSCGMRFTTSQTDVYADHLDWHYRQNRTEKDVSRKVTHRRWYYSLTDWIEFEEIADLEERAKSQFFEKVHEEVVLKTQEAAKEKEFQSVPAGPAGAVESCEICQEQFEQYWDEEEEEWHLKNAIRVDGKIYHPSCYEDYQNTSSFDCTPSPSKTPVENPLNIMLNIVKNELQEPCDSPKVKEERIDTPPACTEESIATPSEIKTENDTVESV

T1 sequence (Q92989 whole entry): as the sequence (Q92989 whole entry R288A/R293K) above, with A288R, K293R counted along it
T1 sequence (O94913 2-1555 partner): as the sequence (O94913 2-1555 partner) above
CF II (hClp1-hPcf11) (Homo sapiens, UniProt Q92989, E22Q), sequence (Q92989 whole entry E22Q): as the sequence (Q92989 whole entry R288A/R293K) above, with E22Q, A288R, K293R counted along it
CF II (hClp1-hPcf11) (Homo sapiens, UniProt Q92989, E22Q), sequence (O94913 2-1555 partner): as the sequence (O94913 2-1555 partner) above
CF II (hClp1-hPcf11) (Homo sapiens, UniProt Q92989, E22A), sequence (Q92989 whole entry E22A): as the sequence (Q92989 whole entry R288A/R293K) above, with E22A, A288R, K293R counted along it
CF II (hClp1-hPcf11) (Homo sapiens, UniProt Q92989, E22A), sequence (O94913 2-1555 partner): as the sequence (O94913 2-1555 partner) above

By EC50 is commonly meant the concentration that produces a half-maximal response. A higher EC50 goes with a need for much substance. Molecule `Nc1ncnc2c1ncn2[C@@H]1O[C@H](COP(=O)(O)OP(=O)(O)OP(=O)(O)O)C[C@H]1O` [3'-dATP] had an EC50 on CF II (hClp1-hPcf11) [1] of 46.3 ± 7.4 µM.
As for `Nc1ncnc2c1ncn2[C@@H]1O[C@H](COP(=O)(O)OP(=O)(O)OP(=O)(O)O)[C@@H](O)[C@H]1O` [ATP], the EC50 amounted to 0.5 ± 0.1 µM at CF II (hClp1-hPcf11) [2], 95.9 ± 19.8 µM at CF II (hClp1-hPcf11) [3], 10.9 ± 2.7 µM on CF II (hClp1-hPcf11) [4] and 5.7 ± 3.4 µM at CF II (hClp1-hPcf11) [5].

Values taken from paper PMC8887130 (Genes & Development, 2022).
